Key:
[1] = tested on: experimental autoimmune encephalomyelitis (EAE); test: EAE (multiple sclerosis model) neural symptom evaluation after intraspinal administration; type: in vivo, Lewis rats; conditions: for clinical score (EAE grade): Day 13 after antigen inoculation
K562 [2] = test: Cell viability by Rhodamine 123 staining after heat treatment; type: cell-based, human; conditions: 20 minutes at 43°C (heat treatment) followed by 60 minutes at 37°C, HA4 100 ng/ml
Procedure: In this example, effect of the inventive pharmaceutical agent on cell viability was measured using Rhodamine 123. […] Accordingly, the degree of the staining with Rhodamine 123 serves as an index of the mitochondrial activity, thus the index of the cellular activity (see, non-patent reference 2).
In this example, a K562 (referred to as human erythroleukemia cell or human erythroblastoid leukemia cell) was used. The K562 was purchased from RIKEN, Japan.
In this example relating to preparation of test substance, HA4 was prepared at 100 ng/ml. Specifically, HA4 was prepared by the method of Tawada et al. (Tawada A, Masa T, Oonuki Y, Watanabe A, Matsuzaki Y, Asari A. Large-scale preparation, purification and characterization of hyaluronan oligosaccharides from 4-mers to 52-mers. Glycobiology, 2002; 12(7):421-6) and the concentration was adjusted using a physiological saline.
First, the K562 was incubated under the condition described below. The culture medium for the K562 was an RPMI-1640 medium. In this example, the K562 was incubated in Groups 1 to 3 shown below. Each group was cultured under the condition described below. […]
The K562 after washing was inoculated at 1×10^4 cells/ml in a 96-well plate and a photograph was taken using a fluorescent microscope (Nikon) . The image was sent to anAdobe Photoshop (Adobe Systems) where the fluorescent intensity of a cell was measured.

K562 [3] = test: DNA chip gene expression analysis, cell viability-related genes (Example 3); type: cell-based, human; conditions: 42°C 20 minutes then 37°C 30 minutes, HA4 10 ng/ml
Procedure: First, the K562 was incubated in Groups 1 and 2 in the […] described above. The both groups were incubated at 42°C for 20 minutes followed by 37°C for 30 minutes. The medium of Group 2 was supplemented with HA4 (10 ng/ml).
After the incubation, the medium was removed by centrifugation at 1000 rpm. The obtained cells were stored in a deep freezer at -60°C. From the cells thus stored, RNA was extracted according to a standard method. The extracted RNA was subjected to the DNA chip to analyze gene expressions. The DNA chip gene expression analysis was subtracted to DNA CHIP Research Inc. Specifically, the trade name: AceGene Human Oligo Chip 30K 1 Chip Version manufactured by DNACHIP Research Inc. was employed.

K562 [4] = test: DNA chip gene expression analysis, cytokine- and chemokine-associated genes (Example 4); type: cell-based, human; conditions: 42°C 20 minutes then 37°C 30 minutes, HA4 10 ng/ml
Procedure: Experimental method: First, the K562 was incubated in Groups 1 and 2 in the RPMI medium described above. The both groups were incubated at 42°C for 20 minutes followed by 37°C for 30 minutes. The medium of Group 2 was supplemented with HA4 (10 ng/ml).
After the incubation, the medium was removed by centrifugation at 1000 rpm. The obtained cells were stored in a deep freezer at -60°C. From the cells thus stored, RNA was extracted according to a standard method. The extracted RNA was subjected to the DNA chip to analyze the gene expression. The DNA chip gene expression analysis was subtracted to DNA CHIP Research Inc. Specifically, the trade name: AceGene Human Oligo Chip 30K 1 Chip Version manufactured by DNA CHIP Research Inc. was employed.

U937 cell [5] = test: Cytokine production under LPS stimulation, cytokine antibody array; type: cell-based, human; conditions: LPS 100 ng/ml, HA4 100 ng/ml, 24 hours
Procedure: (§1) • 2. Cell: U937 cell (human monocyte line), purchased from Dainipon Sumitomo Seiyaku. • 3. Culture medium: RPMI medium (containing 10% FBS). • 4. LPS E.coli, 0111B4, Chemicon.
(§2) An U937 cell was disseminated in a 2 ml aliquot in a 6-well microplate at 5×10^5 cell/ml, supplemented with an LPS at a final concentration of 100 or 1000 ng/ml, and then incubated for 24 hours with 5% CO2 at 37°C in the presence or absence of HA4 (100 ng/ml) . The culture supernatant was centrifuged at 3000 rpm for 5 minutes to obtain a test substance. A 1 ml aliquot of the recovered supernatant was subjected to Human Cytokine Antibody array (Raybio) using an ELISA (ENDOGEN) to detect the production of various cytokines.
A 2 ml aliquot of a blocking buffer was added to a membrane blotted with an antibody, which was then shaken for 30 minutes. The blocking buffer was removed, and a 1 ml aliquot of the culture supernatant was added and shaken at room temperature for 2 hours, washed 5 times, and then admixed with a primary antibody solution. After agitating at room temperature for 1.5 hours followed by washing 5 times, a secondary antibody solution was added and agitated overnight at 4°C. After washing 5 times, a chemiluminescence was allowed to develop and photographed by a Polaroid. The photograph was scanned to obtain its digital data which were subjected to an Image J to measure the luminescent intensity. The ratio based on the luminescent intensity of an internal standard placed in 6 positions in the membrane was calculated. In addition, a relative level (%) based on the expression level in a non-treatment group (NT) being 100 was calculated.

U937 cell [6] = test: IL-6 production under LPS stimulation, ELISA; type: cell-based, human; conditions: LPS 100 ng/ml, HA4 100 ng/ml, 24 hours
Procedure: as §1, §2
To a microplate, 50 µl of a biotinylated antibody solution and 50 µl of the culture supernatant were added, and allowed to stand at room temperature for 2 hours. After washing with a washing buffer three times, 100 µl of a streptoavidin-HRP solution was added, allowed to stand at room temperature for 30 minutes, and washed with the washing buffer three times. A TMB was added, allowed to stand for at room temperature 30 minutes, and then a quencher was added to stop the reaction and the absorbance at 450 nm was measured (reference: 562 nm). The IL-6 concentration (pg/ml) was calculated based on the standard solutions measured in parallel.

cerebrospinal tissue = test: DNA array analysis of cerebrospinal tissue of EAE model animals; type: in vivo, Lewis rats; conditions: Day 14, intrathecal continuous administration 6 µg/day immediately after inoculation of antigen
[7] = Cytotoxicity (general statement); conditions: at a dose exhibiting a biological activity of a pharmaceutical
[8] = intraspinal continuous administration immediately after inoculation, 6 µg/day, 22 Days
[9] = intraspinal single administration after onset of disease, 60 µg

## tetrasaccharide hyaluronan [HA4]
[1]; intraspinal continuous administration from onset of disease, 6 µg/day, 11 Days
  clinical score (EAE grade): 1.5 ± 1.0
[1]; [8]
  clinical score (EAE grade): 0.2 ± 0.41
  cases developing the disease: 1/6
[1]; [9]
  clinical score (EAE grade): 1.8 ± 0.5
  diseased period: 5.0 ± 1.5 days
K562 [2]
  Rhodamine 123 staining performance (fluorescent intensity): inhibited such a reduction
K562 [3]; gene Caspase 2
  HAA+/- ratio: 0.27
K562 [3]; gene DNAJ2
  HAA+/- ratio: 0.34
K562 [3]; gene Granzyme H
  HAA+/- ratio: 0.38
K562 [3]; gene STK17b (DARK2)
  HAA+/- ratio: 0.09
K562 [3]; gene TAF9L
  HAA+/- ratio: 0.43
K562 [3]; gene dnaj (hsp40) homolog
  HAA+/- ratio: 2.62
K562 [3]; gene pawr (Par-4)
  HAA+/- ratio: 0.45
K562 [4]; gene CCL28
  HA4(+)/HA4(-) ratio: 0.32
K562 [4]; gene IFN-γ
  HA4(+)/HA4(-) ratio: 0.11
K562 [4]; gene IFN-ω1
  HA4(+)/HA4(-) ratio: 0.5
K562 [4]; gene IL-1β
  HA4(+)/HA4(-) ratio: 0.36
K562 [4]; gene IL-5
  HA4(+)/HA4(-) ratio: 0.28
K562 [4]; gene IL-17b
  HA4(+)/HA4(-) ratio: 0.31
K562 [4]; gene IL-18RAP
  HA4(+)/HA4(-) ratio: 0.32
K562 [4]; gene Mig(CXCL9)
  HA4(+)/HA4(-) ratio: 0.11
U937 cell [5]
  production of IL-1α: reduction
  production of IL-1β: reduction
  production of IL-6: reduction
  production of TGF-β: reduction
  production of TNF-α: reduction
  production of TNF-β: reduction
U937 cell [6]
  production of IL-6: reduction
Cerebrospinal tissue; Decoy TRAIL receptor without death domain
  Expression level ratio (HA/physiological saline): 2.0
Cerebrospinal tissue; Fibroblast growth factor receptor substrate 2
  Expression level ratio (HA/physiological saline): 2.3
Cerebrospinal tissue; Transthyretin
  Expression level ratio (HA/physiological saline): 0.38
[7]
  cytotoxicity: almost or completely no cytotoxicity
